Assays:
NATTS DZNR = molecular target: T1, NATTS DZNR (Slackia sp. NATTS, UniProt H3JUE4); test: daidzein reductase assay, HPLC; format: biochemical; details: NAD(P)H, anaerobic
T1 construct: gene ddce; synthetic gene in pETDuet-1, expressed in E. coli BL21 (DE3), purified
T1 sequence (H3JUE4 1-644): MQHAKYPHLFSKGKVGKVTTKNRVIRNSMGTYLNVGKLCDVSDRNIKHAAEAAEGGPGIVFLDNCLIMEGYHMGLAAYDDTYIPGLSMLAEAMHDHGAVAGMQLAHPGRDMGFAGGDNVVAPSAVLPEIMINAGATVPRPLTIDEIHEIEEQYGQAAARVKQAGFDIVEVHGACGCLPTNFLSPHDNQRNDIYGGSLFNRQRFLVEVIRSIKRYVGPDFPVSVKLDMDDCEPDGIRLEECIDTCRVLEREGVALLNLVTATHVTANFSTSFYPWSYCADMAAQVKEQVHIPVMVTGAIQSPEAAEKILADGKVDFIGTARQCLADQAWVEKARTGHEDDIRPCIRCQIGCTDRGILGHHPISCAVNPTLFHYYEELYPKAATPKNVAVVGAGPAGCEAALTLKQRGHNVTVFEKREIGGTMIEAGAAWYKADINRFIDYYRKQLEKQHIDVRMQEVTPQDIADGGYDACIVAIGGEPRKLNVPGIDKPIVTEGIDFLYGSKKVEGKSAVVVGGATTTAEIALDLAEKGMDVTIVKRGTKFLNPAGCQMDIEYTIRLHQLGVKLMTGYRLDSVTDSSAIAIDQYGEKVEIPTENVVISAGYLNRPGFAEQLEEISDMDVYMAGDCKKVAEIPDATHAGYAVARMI

Lac 20_92 DZNR = molecular target: T2, Lac 20_92 DZNR (Lactococcus garvieae, UniProt E1CIA4); test: daidzein reductase assay, HPLC; format: biochemical; details: NAD(P)H, anaerobic, 37°C
T2 construct: gene l-dznr; synthetic gene in pETDuet-1, expressed in E. coli BL21 (DE3), purified
T2 sequence (E1CIA4 1-644): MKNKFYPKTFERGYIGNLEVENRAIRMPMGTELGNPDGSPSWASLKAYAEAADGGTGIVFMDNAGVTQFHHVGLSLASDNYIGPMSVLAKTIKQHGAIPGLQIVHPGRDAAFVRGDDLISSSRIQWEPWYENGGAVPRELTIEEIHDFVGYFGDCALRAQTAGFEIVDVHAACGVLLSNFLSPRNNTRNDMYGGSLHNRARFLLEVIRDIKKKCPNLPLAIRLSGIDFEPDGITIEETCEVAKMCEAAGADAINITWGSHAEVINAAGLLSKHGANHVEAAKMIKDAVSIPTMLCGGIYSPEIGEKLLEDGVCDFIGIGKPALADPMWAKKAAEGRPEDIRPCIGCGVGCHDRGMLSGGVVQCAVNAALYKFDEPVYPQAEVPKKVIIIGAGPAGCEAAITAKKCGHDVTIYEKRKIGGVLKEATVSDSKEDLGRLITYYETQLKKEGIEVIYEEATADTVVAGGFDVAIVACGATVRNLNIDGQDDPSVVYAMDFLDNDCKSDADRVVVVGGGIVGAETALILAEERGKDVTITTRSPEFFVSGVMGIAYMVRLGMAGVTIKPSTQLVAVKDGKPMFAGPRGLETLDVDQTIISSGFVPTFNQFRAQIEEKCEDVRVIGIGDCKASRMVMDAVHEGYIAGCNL

Question: With `O=c1c(-c2ccc(O)cc2)coc2cc(O)ccc12` [daidzein, 7-hydroxy-3-(4-hydroxyphenyl)-4H-chromen-4-one] as the molecule, how does the “daidzein reductase assay, HPLC” value (NATTS DZNR) read?
Answer: all recombinant proteins showed DZNR activity, which is an ability to convert DZN to DHD

Question: And the “daidzein reductase assay, HPLC” value (Lac 20_92 DZNR)?
Answer: all recombinant proteins showed DZNR activity, which is an ability to convert DZN to DHD

From paper PMC9164157, “Characterization and Identification of a New Daidzein Reductase Involved in (S)-Equol Biosynthesis in Clostridium sp. ZJ6” (Frontiers in Microbiology, 2022)
